According to article PMC8880098, “Synthesis, Antibacterial Evaluation, and Computational Studies of a Diverse Set of Linezolid Conjugates” (Pharmaceuticals, 2022):
≈ marks a conversion by molar mass, not a printed value. Read-outs that look alike come from different tables or passages of the source.

Tests used:
[1] = test system: Pseudomonas aeruginosa ATCC 15692; set-up: method as in PMID 27025339; details: reference fluoroquinolones, cited from earlier work; for MIC (μmol), P. Aeruginosa (ATCC 15692): value in parentheses
[2] = test system: Staphylococcus aureus ATCC 6538; set-up: method as in PMID 27025339; details: reference fluoroquinolones, cited from earlier work; for MIC (μmol), S. Aureus (ATCC 6538): value in parentheses
[3] = test system: Pseudomonas aeruginosa ATCC 15692; experiment: Antibacterial MIC, microdilution susceptibility test (CLSI); assay type: cell-based
Description: (§1) The synthesized linezolid conjugates (3a–k, 5a–f, 7a–c, 9a–c, 11a–f, 13, and 15) were subjected for antimicrobial properties determination against Gram-positive (Staphylococcus aureus ATCC 6538, Bacillus subtilis ATCC 6633) and Gram-negative (Pseudomonas aeruginosa ATCC 15692, Escherichia coli ATCC 47076) bacteria by the standard technique.
(§2) Antibacterial properties of the synthesized compounds (3a–k, 5a–f, 7a–c, 9a–c, 11a–f, 13 and 15) were screened against Gram-positive (Staphylococcus aureus ATCC 6538, Bacillus subtilis ATCC 6633) and Gram-negative (Pseudomonas aeruginosa ATCC 15,692 and Escherichia coli ATCC 47076) bacteria utilizing the standard technique. Linezolid was used as a standard reference/drug in the current study. The tested bacterial strains were obtained from MERCIN Center, Faculty of Agriculture, Ain Shams University, Cairo, Egypt.
(§3) To determine the antibacterial activity, stock solutions of the tested compounds and standard reference were prepared with up to 100% DMSO and stored at […]. If necessary, the solutions were heated to 40–60 °C before testing to facilitate complete dissolution. Double distilled water was used in all dilutions prepared. […] A microdilution susceptibility test was used for MIC determination (Mueller–Hinton broth in 96-well plates) according to the CLSI (the Clinical and Laboratory Standards Institute, Malvern, PA, USA). The bacterial inoculum was adjusted to approximately 2.5–3 × 10^4 cells/mL in Mueller–Hinton broth and incubated in a ratio of 1:1 with the test derivatives in polystyrene 96-well flat-bottom microplates. Positive growth control (without test derivatives) and negative control (without bacteria) were included. The microplates were placed in an incubator set to 37 °C for 24 h. Absorbance was measured at 620 nm at the end of the incubation period. The cut-off level for follow-up studies was defined as a minimum of 90% inhibition of growth compared to the untreated sample. Experiments were conducted once in triplicate. For selected compounds, minimum inhibitory concentration (MIC) values were determined by dose–response experiments. Experiments were performed at least twice, in triplicate per concentration tested.

[4] = test system: Staphylococcus aureus ATCC 6538; experiment: as above; assay type: cell-based; details: Staphylococcus aureus, ATCC6538, 24 h, Mueller–Hinton broth, 37 °C, 24 h; read-out: MIC, μg/mL ± SE, S. Aureus (ATCC 6538)
Description: as §1, §2, §3

[5] = test system: Bacillus subtilis ATCC 6633; experiment: as above; assay type: cell-based; details: Bacillus subtilis, ATCC6633, 24 h, Mueller–Hinton broth, 37 °C, 24 h; read-out: MIC, μg/mL ± SE, B. Subtilis (ATCC 6633)
Description: as §1, §2, §3

[6] = test system: Escherichia coli ATCC 47076; experiment: as above; assay type: cell-based
Description: as §1, §2, §3

[7] = test system: Staphylococcus aureus ATCC 6538; experiment: microbe, parasite or virus in culture; set-up: species or system bacteria; Broth microdilution MIC in Mueller-Hinton broth, absorbance at 620 nm; details: ATCC6538, 24 h, read-out: Observed MIC, uM (S. aureus)
Description: as §3, with “Antibacterial properties of the synthesized compounds (3a–k, 5a–f, 7a–c, 9a–c, 11a–f, 13 and 15) were screened against Gram-positive (Staphylococcus aureus ATCC 6538, Bacillus subtilis ATCC 6633) and Gram-negative (Pseudomonas aeruginosa ATCC 15,692 and Escherichia coli ATCC 47076) bacteria utilizing the standard technique. Linezolid was used as a standard reference/drug in the current study. The tested bacterial strains were obtained from MERCIN Center, Faculty of Agriculture, Ain Shams University, Cairo, Egypt. To” for “To”

[8] = test system: Bacillus subtilis ATCC 6633; experiment: microbe, parasite or virus in culture; set-up: species or system bacteria; Broth microdilution MIC in Mueller-Hinton broth, absorbance at 620 nm; details: ATCC6633, 24 h, read-out: Observed MIC, uM (B. subtilis)
Description: as §3, with “Antibacterial properties of the synthesized compounds (3a–k, 5a–f, 7a–c, 9a–c, 11a–f, 13 and 15) were screened against Gram-positive (Staphylococcus aureus ATCC 6538, Bacillus subtilis ATCC 6633) and Gram-negative (Pseudomonas aeruginosa ATCC 15,692 and Escherichia coli ATCC 47076) bacteria utilizing the standard technique. Linezolid was used as a standard reference/drug in the current study. The tested bacterial strains were obtained from MERCIN Center, Faculty of Agriculture, Ain Shams University, Cairo, Egypt. To” for “To”

[9] = ATCC15692, Mueller–Hinton broth, 37 °C, 24 h, read-out: MIC, μg/mL ± SE, P. Aeruginosa (ATCC 15692)
[10] = ATCC15692, value in parentheses, read-out: MIC (μmol), P. Aeruginosa (ATCC 15692) (converted)
[11] = ATCC47076, Mueller–Hinton broth, 37 °C, 24 h, read-out: MIC, μg/mL ± SE, E. Coli (ATCC 47076)
[12] = ATCC47076, value in parentheses, read-out: MIC (μmol), E. Coli (ATCC 47076) (converted)

For `O=C(O)c1cn(C2CC2)c2cc(N3CCNCC3)c(F)cc2c1=O` [Ciprofloxacin], the “MIC, μg/mL ± SE, P. Aeruginosa (ATCC 15692)” value [1] is given as 4.8 ± 0.5 µg/mL (≈ 14.5 µM), the “MIC (μmol), P. Aeruginosa (ATCC 15692)” value [1] is given as 14.5 µmol and the “MIC, μg/mL ± SE, S. Aureus (ATCC 6538)” value [2] is given as 1250.0 ± 9.6 µg/mL (≈ 3770 µM). The “MIC (μmol), S. Aureus (ATCC 6538)” value [2] was 3772.4 µmol.
Compound `O=C(NC[C@H]1CN(c2ccc(N3CCOCC3)c(F)c2)C(=O)O1)c1cccc([N+](=O)[O-])c1Cl` [Compound 5f, (S)-2-Chloro-N-((3-(3-fluoro-4-morpholinophenyl)-2-oxooxazolidin-5-yl)methy-l)-3-nitrobenzamide] has an MIC [3, 9] of 32 ± 1.4 µg/mL, an MIC [3, 10] of 66.8 µM and an MIC [4] of 8 ± 0.2 µg/mL (≈ 16.7 µM). It also gave an MIC [5] of 4 ± 0.3 µg/mL (≈ 8.35 µM), an MIC [6, 11] of 32 ± 0.6 µg/mL and an MIC [6, 12] of 66.8 µM. The melting point was 200 to 202 °C, the MIC [7] was 16.7 µM (≈ 8 µg/mL) and the MIC [8] was 8.35 µM (≈ 4 µg/mL).
In the case of `O=C(NC[C@H]1CN(c2ccc(N3CCOCC3)c(F)c2)C(=O)O1)c1cccnc1` [Compound 7b, (S)-N-((3-(3-Fluoro-4-morpholinophenyl)-2-oxooxazolidin-5-yl)methyl)nicotinamide], the MIC [3, 9] is reported as 32 ± 1.2 µg/mL, the MIC [3, 10] is reported as 79.9 µM and the MIC [4] is reported as 8 ± 0.2 µg/mL (≈ 20 µM). For the same compound, the MIC [5] was 2 ± 0.1 µg/mL (≈ 4.99 µM), the MIC [6, 11] was 32 ± 1 µg/mL and the MIC [6, 12] was 79.9 µM. It also gave a melting point of 182 to 184 °C, an MIC [7] of 20 µM (≈ 8 µg/mL) and an MIC [8] of 5 µM (≈ 2 µg/mL).
In the case of `O=C(NC[C@H]1CN(c2ccc(N3CCOCC3)c(F)c2)C(=O)O1)c1cnccn1` [Compound 7c, (S)-N-((3-(3-Fluoro-4-morpholinophenyl)-2-oxooxazolidin-5-yl)methyl)pyrazine-2-carboxamide], the MIC [3, 9] is reported as 32 ± 1.1 µg/mL, the MIC [3, 10] is reported as 79.7 µM and the MIC [4] is reported as 8 ± 0.1 µg/mL (≈ 19.9 µM). The MIC [5] was 2 ± 0.1 µg/mL (≈ 4.98 µM), the MIC [6, 11] was 32 ± 0.7 µg/mL and the MIC [6, 12] was 79.7 µM. The melting point was 190 to 192 °C, the MIC [7] was 19.9 µM (≈ 8 µg/mL) and the MIC [8] was 4.98 µM (≈ 2 µg/mL).
`CC(C)C[C@H](NC(=O)c1cnccn1)C(=O)NC[C@H]1CN(c2ccc(N3CCOCC3)c(F)c2)C(=O)O1` [Compound 9a, N-((S)-1-((((S)-3-(3-Fluoro-4-morpholinophenyl)-2-oxooxazolidin-5-yl)methyl)amino) -4-methyl-1-oxopentan-2-yl)pyrazine-2-carboxamide] showed an MIC [3, 9] of 32 ± 1.3 µg/mL, an MIC [3, 10] of 62.2 µM and an MIC [4] of 32 ± 0.4 µg/mL (≈ 62.2 µM). It also gave an MIC [5] of 32 ± 2 µg/mL (≈ 62.2 µM), an MIC [6, 11] of 32 ± 1.6 µg/mL and an MIC [6, 12] of 62.2 µM. The melting point was 90 to 92 °C, the MIC [7] was 62.2 µM (≈ 32 µg/mL) and the MIC [8] was 62.2 µM (≈ 32 µg/mL).
`CC(C)[C@H](NC(=O)c1cnccn1)C(=O)NC[C@H]1CN(c2ccc(N3CCOCC3)c(F)c2)C(=O)O1` [Compound 9b, N-((S)-1-((((S)-3-(3-Fluoro-4-morpholinophenyl)-2-oxooxazolidin-5-yl)methyl)amino) -3-methyl-1-oxobutan-2-yl)pyrazine-2-carboxamide] gave an MIC [3, 9] of 32 ± 2.5 µg/mL, an MIC [3, 10] of 63.9 µM and an MIC [4] of 32 ± 1.7 µg/mL (≈ 63.9 µM). The MIC [5] was 32 ± 1.3 µg/mL (≈ 63.9 µM), the MIC [6, 11] was 32 ± 3.4 µg/mL and the MIC [6, 12] was 63.9 µM. For the same compound, the melting point was 94 to 96 °C, the MIC [7] was 63.9 µM (≈ 32 µg/mL) and the MIC [8] was 63.9 µM (≈ 32 µg/mL).
Work on `O=C(N[C@@H](Cc1ccccc1)C(=O)NC[C@H]1CN(c2ccc(N3CCOCC3)c(F)c2)C(=O)O1)c1cnccn1` [Compound 9c, N-((S)-1-((((S)-3-(3-Fluoro-4-morpholinophenyl)-2-oxooxazolidin-5-yl)methyl)amino) -1-oxo-3-phenylpropan-2-yl)pyrazine-2-carboxamide] yielded an MIC [3, 9] of 32 ± 0.8 µg/mL, an MIC [3, 10] of 58.3 µM and an MIC [4] of 32 ± 0.9 µg/mL (≈ 58.3 µM). The MIC [5] was 32 ± 0.5 µg/mL (≈ 58.3 µM), the MIC [6, 11] was 32 ± 1 µg/mL and the MIC [6, 12] was 58.3 µM. For the same compound, the melting point was 172 to 174 °C, the MIC [7] was 58.3 µM (≈ 32 µg/mL) and the MIC [8] was 58.3 µM (≈ 32 µg/mL).
In the case of `O=C1O[C@@H](CNCc2ccc(F)cc2F)CN1c1ccc(N2CCOCC2)c(F)c1` [Compound 11e, (S)-5-[{(2,4-Difluorobenzyl)amino}methyl]-3-(3-fluoro-4-morpholinophenyl) oxazolid-ine-2-one], the MIC [3, 9] is reported as 32 ± 0.5 µg/mL, the MIC [3, 10] is reported as 75.9 µM and the MIC [4] is reported as 32 ± 0.2 µg/mL (≈ 75.9 µM). The MIC [5] was 32 ± 1.3 µg/mL (≈ 75.9 µM), the MIC [6, 11] was 32 ± 0.3 µg/mL and the MIC [6, 12] was 75.9 µM. It also gave a melting point of 74 to 76 °C, an MIC [7] of 75.9 µM (≈ 32 µg/mL) and an MIC [8] of 75.9 µM (≈ 32 µg/mL).
For `O=C(CCCC[C@@H]1SC[C@@H]2NC(=O)N[C@@H]21)NC[C@H]1CN(c2ccc(N3CCOCC3)c(F)c2)C(=O)O1` [Compound 15, N-(((S)-3-(3-Fluoro-4-morpholinophenyl)-2-oxooxazolidin-5-yl)methyl)-5-((3aS, 4S, 6aR)-2-oxohexahydro-1H-thieno [3,4-d]imidazol-4-yl)pentanamide], the MIC [3, 9] was 32 ± 0.3 µg/mL, the MIC [3, 10] was 61.3 µM and the MIC [4] was 32 ± 0.4 µg/mL (≈ 61.3 µM). It also gave an MIC [5] of 32 ± 0.2 µg/mL (≈ 61.3 µM), an MIC [6, 11] of 32 ± 0.7 µg/mL and an MIC [6, 12] of 61.3 µM. The melting point was 222 to 224 °C, the MIC [7] was 61.3 µM (≈ 32 µg/mL) and the MIC [8] was 61.3 µM (≈ 32 µg/mL).
For `CCn1cc(C(=O)O)c(=O)c2cc(F)c(N3CCNCC3)cc21` [Norfloxacin], the “MIC, μg/mL ± SE, P. Aeruginosa (ATCC 15692)” value [1] is given as 4.8 ± 0.2 µg/mL (≈ 15 µM), the “MIC (μmol), P. Aeruginosa (ATCC 15692)” value [1] is given as 15.0 µmol and the “MIC, μg/mL ± SE, S. Aureus (ATCC 6538)” value [2] is given as 1250.0 ± 14.2 µg/mL (≈ 3910 µM). For the same compound, the “MIC (μmol), S. Aureus (ATCC 6538)” value [2] was 3914.3 µmol.
